We go through 28 compounds from patent US11827628B2, “Compositions and methods for inhibition of the JAK pathway” (Rigel Pharmaceuticals, Inc., priority 2005, dated 2023).

Structures are written as SMILES. Structures can show the parent of a compound that is named as a salt. Where two headings read alike, the source gives them in different places.

A word on the IC50: it is the point on the concentration scale where inhibition reaches its midpoint.

The test system of one assay is Primary human T-cells. The assay can be described thus: Primary Human T-Cell Proliferation Assay Stimulated with IL-2 (CellTiter-Glo). The class given is cell-based. Particulars: primary human T-cell proliferation stimulated with IL-2, read-out: IC50, Example 42. Summed up: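 Peripheral blood T-cells pre-activated with anti-CD3/anti-CD28 and IL-2 were washed free of IL-2, then cultured with compound plus IL-2 for 72 hours at 37° C, duplicate wells. Viability read as ATP by CellTiter-Glo luminescence; IC50 reported.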
A general note: Cellular ATP, detected with luciferase, serves as a proxy for viable cell number.

Assay [1] concerns IL-4 stimulated expression of CD23 in human Ramos B cells (JAK-1 and JAK-3). The assay can be described thus: Assay for Ramos B-Cell Line Stimulated with IL-4 (CD23 upregulation, FACS). In kind it is cell-based. Particulars: Ramos B-cell line stimulated with IL-4, CD23 expression by FACS, read-out: IC50, Example 41. Summed up: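 Human Ramos B cells (5×10^4 per point, RPMI 5% serum) pre-incubated 1 h at 37 °C with compound or DMSO, then stimulated with IL-4 at 50 units/mL final for 20-24 h. CD23 upregulation measured by anti-CD23-PE staining and flow cytometry; IC50 derived.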

As to `COc1cc(Nc2nc(Nc3ccc(C)c(S(N)(=O)=O)c3)ncc2F)ccc1CCC#N` [III-25, N2-(3-Aminosulfonyl-4-methylphenyl)-N4-(4-cyanoethylene-3-methoxyphenyl)-5-fluoro-2,4-pyrimidinediamine], the IC50 in the assay on Primary human T-cells was found to be 1260 nM; in assay [1], 272 nM.

In the case of `Cc1cc(CCC#N)ccc1Nc1nc(Nc2cccc(S(N)(=O)=O)c2)ncc1F` [III-26, N2-(3-Aminosulfonylphenyl)-N4-(4-cyanoethylene-2-methylphenyl)-5-fluoro-2,4-pyrimidinediamine], the IC50 in the assay on Primary human T-cells came out at 583 nM; in assay [1], 162 nM.

In the case of `CCC(=O)NS(=O)(=O)c1cc(Nc2ncc(F)c(Nc3ccc(C=CC#N)c(Cl)c3)n2)ccc1C` [III-28, N4-(3-Chloro-4-cyanoethylene-phenyl)-5-fluoro-N2-(4-methyl-3-propionylaminosulfonylphenyl)-2,4-pyrimidinediamine], the IC50 is 17400 nM with Primary human T-cells and 3750 nM in assay [1].

Turning to `CCC(=O)NS(=O)(=O)c1cc(Nc2ncc(F)c(Nc3ccc(CCC#N)c(Cl)c3)n2)ccc1C` [III-29, N4-(3-Chloro-4-cyanoethylene-phenyl)-5-fluoro-N2-(4-methyl-3-propionylaminosulfonylphenyl)-2,4-pyrimidinediamine Sodium salt], the IC50 stood at 12400 nM in the assay with Primary human T-cells and 3630 nM in assay [1].

With `Cc1ccc(Nc2ncc(F)c(Nc3ccc(CCC#N)c(C(F)(F)F)c3)n2)cc1S(N)(=O)=O` [III-30, N4-(4-Cyanoethylene-3-trifluoromethylphenyl)-5-fluoro-N2-(4-methyl-3-aminosulfonylphenyl)-2,4-pyrimidinediamine], the IC50 in the assay on Primary human T-cells is 319 nM; in assay [1], 64.5 nM.

Consider `NC(=O)NCc1ccc(Nc2nc(Nc3ccc(S(N)(=O)=O)cc3)ncc2F)cc1` [III-32, N4-(4-Aminocarbonylaminomethylphenyl)-N2-(4-aminosulfonylphenyl)-5-fluoro-2,4-pyrimidinediamine], for which the IC50 amounted to 3320 nM in the assay on Primary human T-cells (Homo sapiens, T-cell) and 4400 nM in assay [1] (Homo sapiens, Ramos).

For `NC(=O)NCc1ccc(Nc2nc(Nc3cccc(S(N)(=O)=O)c3)ncc2F)cc1` [III-33, N4-(4-Aminocarbonylaminomethylphenyl)-N2-(3-aminosulfonylphenyl)-5-fluoro-2,4-pyrimidinediamine], the IC50 stood at 852 nM in the assay with Primary human T-cells (Homo sapiens, T-cell) and 1680 nM in assay [1] (Homo sapiens, Ramos).

In the case of `Cc1ccc(Nc2ncc(F)c(Nc3ccc(CNC(N)=O)cc3)n2)cc1S(N)(=O)=O` [III-34, N4-(4-Aminocarbonylaminomethylphenyl)-N2-(3-aminosulfonyl-4-methylphenyl)-5-fluoro-2,4-pyrimidinediamine], the IC50 stood at 381 nM with Primary human T-cells (Homo sapiens, T-cell) and 473 nM in assay [1] (Homo sapiens, Ramos).

For the compound `CCC(=O)NCc1ccc(Nc2nc(Nc3cccc(S(N)(=O)=O)c3)ncc2F)cc1` [III-36, N2-(3-aminosulfonyl)phenyl-N4-(4-ethylcarbonylaminomethyl)phenyl-5-fluoro-2,4-pyrimidinediamine], the values for the IC50 (in the assay with Primary human T-cells; in assay [1]) were 382 nM and 394 nM, respectively.

Turning to `NS(=O)(=O)c1ccc(Nc2ncc(F)c(Nc3cccc(CNC(=O)C4CC4)c3)n2)cc1` [III-38, N2-(4-aminosulfonyl)phenyl-N4-(3-cyclopropylcarbonylaminomethyl)phenyl-5-fluoro-2,4-pyrimidinediamine], the figures for the IC50 (in the assay with Primary human T-cells; in assay [1]) were 1130 nM and 198 nM, respectively.

As for `NS(=O)(=O)c1cccc(Nc2ncc(F)c(Nc3ccc(CNC(=O)C4CC4)cc3)n2)c1` [III-42, N2-(3-aminosulfonyl)phenyl-N4-(4-cyclopropylcarbonylaminomethyl)phenyl-5-fluoro-2,4-pyrimidinediamine], the IC50 turned out to be 641 nM in the assay on Primary human T-cells and 294 nM in assay [1].

On to `Cc1ccc(Nc2ncc(F)c(Nc3ccc(CNC(=O)C4CC4)cc3)n2)cc1S(N)(=O)=O` [III-43, N2-(3-aminosulfonyl-4-methyl)phenyl-N4-(4-cyclopropylcarbonylaminomethyl)phenyl-5-fluoro-2,4-pyrimidinediamine], for which the IC50 turned out to be 898 nM with Primary human T-cells and 270 nM in assay [1].

For the compound `C=CC(=O)NCc1ccc(Nc2nc(Nc3cccc(S(N)(=O)=O)c3)ncc2F)cc1` [III-45, N4-(4-Acrylamidomethylphenyl)-N2-(3-aminosulfonylphenyl)-5-fluoro-2,4-pyrimidinediamine], the IC50 with Primary human T-cells (Homo sapiens, T-cell) came out at 384 nM; in assay [1] (Homo sapiens, Ramos), 293 nM.

For `C=CC(=O)NCc1ccc(Nc2nc(Nc3ccc(C)c(S(N)(=O)=O)c3)ncc2F)cc1` [III-46, N4-(4-Acrylamidomethylphenyl)-N2-(3-aminosulfonyl-4-methylphenyl)-5-fluoro-2,4-pyrimidinediamine], the IC50 is 1050 nM with Primary human T-cells (Homo sapiens, T-cell) and 211 nM in assay [1] (Homo sapiens, Ramos).

`Cc1ccc(Nc2ncc(F)c(Nc3ccc(CCC(N)=O)cc3)n2)cc1S(N)(=O)=O` [III-47, N4-[4-(2-Aminocarboxylethylene)phenyl]-5-fluoro-N2-(4-methyl-3-aminosulfonylphenyl)-2,4-pyrimidinediamine]: the IC50 with Primary human T-cells is 366 nM; in assay [1], 211 nM.

As for `NC(=O)CCc1ccc(Nc2nc(Nc3cccc(S(N)(=O)=O)c3)ncc2F)cc1` [III-48, N4-[4-(2-Aminocarboxylethylene)phenyl]-N2-(3-aminosulfonylphenyl)-5-fluoro-2,4-pyrimidinediamine], the IC50 in the assay on Primary human T-cells was found to be 218 nM; in assay [1], 204 nM.

On to `Cn1ccc(NC(=O)Cc2ccc(Nc3nc(Nc4cccc(S(N)(=O)=O)c4)ncc3F)cc2)n1` [III-50, N2-(3-Aminosulfonylphenyl)-5-fluoro-N-4-[4(1-methylpyrazolyl-3-aminocarbonylmethylene)phenyl]-2,4-pyrimidinediamine], for which the half-inhibitory concentration (IC50) in the assay with Primary human T-cells is 1970 nM; in assay [1], 306 nM.

For `CCn1nccc1NC(=O)Cc1ccc(Nc2nc(Nc3ccc(C)c(S(N)(=O)=O)c3)ncc2F)cc1` [III-52, N2-(3-Aminosulfonyl-4-methylphenyl)-5-N4-[(1-ethylpyrazolyl-5-aminocarbonylmethylene)phenyl]-5-fluoro-2,4-pyrimidinediamine], the IC50 in the assay with Primary human T-cells was 1200 nM; in assay [1], 183 nM.

`NC(=O)OCCc1ccc(Nc2nc(Nc3ccc(Cl)c(S(N)(=O)=O)c3)ncc2F)cc1` [III-55, N4-{4-[2-(Aminocarbonyloxy)ethyl]phenyl}-N2-(3-aminosulfonyl-4-chlorophenyl)-5-fluoro-2,4-pyrimidinediamine]: the IC50 amounted to 973 nM in the assay on Primary human T-cells (Homo sapiens, T-cell) and 144 nM in assay [1] (Homo sapiens, Ramos).

Take `Cc1ccc(Nc2ncc(F)c(Nc3ccc(CCOC(=O)N(C)C)cc3)n2)cc1S(N)(=O)=O` [III-56, N2-(3-Aminosulfonyl-4-methylphenyl)-N4-{4-[2-(dimethylaminocarbonyloxy)ethyl]phenyl}-5-fluoro-2,4-pyrimidinediamine]: the IC50 was determined as 499 nM in the assay with Primary human T-cells (Homo sapiens, T-cell) and 196 nM in assay [1] (Homo sapiens, Ramos).

As for `CN(C)C(=O)OCCc1ccc(Nc2nc(Nc3ccc(Cl)c(S(N)(=O)=O)c3)ncc2F)cc1` [III-58, N2-(3-Aminosulfonyl-4-chlorophenyl)-N4-{4-[2-(dimethylaminocarbonyloxy)ethyl]phenyl}-5-fluoro-2,4-pyrimidinediamine], the IC50 in the assay with Primary human T-cells (Homo sapiens, T-cell) stood at 1260 nM; in assay [1] (Homo sapiens, Ramos) it was 157 nM.

On to `CNC(=O)OCCc1ccc(Nc2nc(Nc3ccc(C)c(S(N)(=O)=O)c3)ncc2F)cc1` [III-59, N2-(3-Aminosulfonyl-4-methylphenyl)-5-fluoro-N4-{4-[2-(methylaminocarbonyloxy)ethyl]phenyl}-2,4-pyrimidinediamine], for which the IC50 is 458 nM in the assay on Primary human T-cells (Homo sapiens, T-cell) and 150 nM in assay [1] (Homo sapiens, Ramos).

On to `CNC(=O)OCCc1ccc(Nc2nc(Nc3ccc(Cl)c(S(N)(=O)=O)c3)ncc2F)cc1` [III-61, N2-(3-Aminosulfonyl-4-chlorophenyl)-5-fluoro-N4-{4-[2-(methylaminocarbonyloxy)ethyl]phenyl}-2,4-pyrimidinediamine], for which the half-maximal inhibitory concentration (IC50) with Primary human T-cells (Homo sapiens, T-cell) was 1080 nM; in assay [1] (Homo sapiens, Ramos), 259 nM.

For `NS(=O)(=O)c1cccc(Nc2ncc(F)c(Nc3ccc(Cc4ccccc4)cc3)n2)c1` [III-62, N2-(3-Aminosulfonylphenyl)-N4-(4-benzylphenyl)-5-fluoro-2,4-pyrimidinediamine], the IC50 turned out to be 699 nM in the assay on Primary human T-cells (Homo sapiens, T-cell) and 172 nM in assay [1] (Homo sapiens, Ramos).

Consider `NS(=O)(=O)c1cccc(Nc2ncc(F)c(Nc3ccc(Cc4ccncc4)cc3)n2)c1` [III-73, N2-(3-Aminosulfonylphenyl)-5-fluoro-N4-[4-(4-pyridylmethyl)phenyl]-2,4-pyrimidinediamine Hydrochloride Salt], for which the IC50 amounted to 434 nM in the assay with Primary human T-cells (Hydrochloride Salt) and 131 nM in assay [1] (Hydrochloride Salt).

As to `NS(=O)(=O)c1ccc(Nc2ncc(F)c(NCCc3ccc(-c4ccncc4)cc3)n2)cc1` [III-79, N2-(4-Aminosulfonylphenyl)-5-fluoro-N4-[4-(4-pyridinyl)phenethyl]-2,4-pyrimidinediamine], the half-maximal inhibitory concentration (IC50) came to 967 nM in the assay with Primary human T-cells (Homo sapiens, T-cell) and 169 nM in assay [1] (Homo sapiens, Ramos).

As to `NS(=O)(=O)c1cccc(Nc2ncc(F)c(Nc3ccc(Cc4cc[n+]([O-])cc4)cc3)n2)c1` [III-80, N2-(3-Aminosulfonylphenyl)-5-fluoro-N4-[4-(1-oxido-4-pyridylmethyl)phenyl]-2,4-pyrimidinediamine], the IC50 is 844 nM in the assay on Primary human T-cells (Homo sapiens, T-cell) and 3160 nM in assay [1] (Homo sapiens, Ramos).

For `CCN(CC)CCNS(=O)(=O)c1ccc(Nc2ncc(F)c(Nc3ccc(Cn4ccnc4)cc3)n2)cc1` [III-84, N2-[4-(2-N,N-Diethylaminoethyl)aminosulfonylphenyl)-5-fluoro-N4-[4-(1-imidazolylmethyl)phenyl]-2,4-pyrimidinediamine], the IC50 was found to be 1900 nM in the assay with Primary human T-cells and 443 nM in assay [1].
